Assay results published in patent US5677459A, “Methods for the preparation of modulators of acetylcholine receptors” (Sibia Neurosciences, Inc., priority 1995, dated 1997).
Counter-ions that a name gives are not always drawn. Like-named read-outs stand apart in the source and are kept apart here.

What was measured:
[1] = system: ^3 H-Dopamine release, rat striatal slices; assay: Ligand-stimulated ^3 H-dopamine release from rat striatal slices; format: cell-based; conditions: in vitro slices, 300 μM
Method: (§1) Measurement of ^3 H-dopamine release from rat striatal slices was performed according to the method of Sacaan et al. (J. Neurochem. 59:245 (1992)). Male Sprague-Dawley rats (250-300 g) were decapitated and the striata or olfactory tubercles dissected quickly on a cold glass surface. The tissue was chopped to a thickness of 300 μm with a McIlwain tissue chopper. After chopping again at right angles the tissue was dispersed and incubated for 10 min. at 37° C. in oxygenated Kreb's buffer. ^3 H-Dopamine (40 Ci/mmol, NEN- Dupont, Boston, Mass.) was added (50 nM) and the tissue was incubated for 30 min. in Kreb's buffer containing 10 μM pargyline and 0.5 mM ascorbic acid. Aliquots of the minced tissue were then transferred to chambers of a Brandel Superfusion system in which the tissue was supported on Whatman GF/B filter discs. The tissue was then superfused with buffer at a constant flow rate of 0.3 ml/min by means of a Brandel peristaltic pump. The perfusate was collected in plastic scintillation vials in 3-min fractions, and the radioactivity was estimated by scintillation spectrophotometry. The superfusate for the first 120 min was discarded. After two baseline fractions had been collected, the superfusion buffer was switched to fresh buffer with or without compound of interest. At the end of the experiment the filter and the tissue were removed, and the radiolabeled neurotransmitter content was estimated after extraction into scintillation fluid. The fractional efflux of radiolabeled neurotransmitter was estimated as the amount of radioactivity in the perfusate fraction relative to the total amount in the tissue.
(§2) Results of studies of the effects of an invention compound (as compared to the effect of nicotine) on the release of neurotransmitters from rat brain slices are presented in Table II. Results presented in Part A of the Table are expressed as the percent fractional release and results presented in Part B of the Table are expressed as a percentage, relative to nicotine response.

[2] = system: ^3 H-Norepinephrine release, rat prefrontal cortex slices; assay: Ligand-stimulated ^3 H-norepinephrine release from rat prefrontal cortex slices; format: cell-based; conditions: in vitro slices, 300 μM
Method: as §1
(§3) Following essentially the same procedure as set forth above, the amount of ^3 H-norepinephrine released from rat hippocampus, thalamus and prefrontal cortex slices superfused with buffer containing (or lacking) compounds of interest was also measured.
as §2

[3] = system: rats; assay: Locomotor activity assay; format: in vivo, rat (male Sprague-Dawley); conditions: Rattus norvegicus, sc, s.c.
Method: This assay can be used to assess the primary effect of a compound on general motor activity. A decrease in locomotor activity is indicative of a possible sedative effect on the animal, whereas an increase in locomotor activity is indicative of a stimulant effect on the animal.
Locomotor activity of rats (male Sprague-Dawley (Harlan) weighing 200-250 gm) was measured for 2 hrs in photocell cages immediately after administration of the invention compound. Prior to the test day, the animals were placed in the activity cages for 3 hrs to familiarize them with the experimental environment. On the test day, the animals were placed in the photocell cages and then injected with compound 1.5 hrs later.
The photocell cages were standard rodent cages (30 cm×20 cm×40 cm) with four infrared beams crossing the long axis. The animals were under no motivational constraints and were free to move around. Movements from one infrared beam to another (ambulation) were called "crossover"; successive interruptions of the same beam (vertical and other movements such as grooming) were called "general activity."

[4] = system: ^3 H-Norepinephrine release, rat thalamus slices; assay: Ligand-stimulated ^3 H-norepinephrine release from rat thalamus slices; format: cell-based; conditions: in vitro slices, 300 μM
Method: as §1, §3, §2

[5] = system: ^3 H-Norepinephrine release, rat hippocampus slices; assay: Ligand-stimulated ^3 H-norepinephrine release from rat hippocampus slices; format: cell-based; conditions: in vitro slices, 300 μM
Method: as §1, §3, §2

[6] = system: ^3 H-Dopamine release, rat olfactory tubercles; assay: Ligand-stimulated ^3 H-dopamine release from rat olfactory tubercles; format: cell-based; conditions: in vitro slices, 300 μM
Method: as §1, §2

[7] = system: rats with unilateral 6-hydroxydopamine lesions of the nigrostriatal dopamine pathway; format: in vivo, rat (male Sprague-Dawley); conditions: 1 mg/kg base, s.c., per one hour interval
Method: Selective lesions of the brain dopamine pathway using the neurotoxin 6-hydroxydopamine (6-OHDA) in rats can be used as an experimental approach to Parkinson's disease. Unilateral lesions of the nigrostriatal dopamine pathway induce a postural asymmetry which becomes manifested as rotation when the animals are activated by dopamine releasers or dopamine agonists. When amphetamine and other stimulant drugs that induce pre-synaptic release of dopamine from intact nerve terminals are administered, the rats rotate in a direction ipsilateral to the lesion. In contrast, when the rats are injected with post-synaptic dopamine receptor agonists, such as apomorphine, they turn in a contralateral direction, due to the development of supersensitive dopamine receptors in the lesioned side. Thus, the 6-OHDA model can be used to determine if a suspected dopaminergic agent is active, and to differentiate whether such action is pre- or post-synaptic.
The effects of invention compounds on rotational behavior in 6-hydroxydopamine denervated rats were evaluated using the procedure of Ungerstedt and Arbutknott, Brain Res. 24:485-493 (1970). Male Sprague-Dawley rats (Zivic Miller) weighing 170-200 gm were used in the 6-OHDA procedure. The ascending nigrostriatal dopamine pathway was lesioned by unilateral stereotaxic injection of 6-OHDA (8.0 μg) into one substantia nigra. All injections of 6-OHDA were preceded by desmethylimipramine (25 mg/kg i.p.) and pargyline (75 mg/kg i.p.) approximately 30 minutes prior to undergoing stereotaxic surgery for 6-OHDA infusion into the substantia nigra. After one week of recovery from surgery, the effectiveness of the lesions was verified by noting the response of the animals to apomorphine (0.2 mg/kg, s.c.). Only rats with a minimum rate of 80 contralateral turns per 30 minutes (a sign of more than 80-90% dopamine depletion after a 6-OHDA lesion) were used. Two weeks later, the selected rats were tested with invention and reference compounds using an automated rotometer system to record the number and direction of rotations. In order to distinguish spontaneous (non-specific)rotations from induced rotations (specific to the effect of the drug), each rat was used as its own control, employing the following procedure:
The rat was placed in the rotometer system for acclimatation for 15 minutes, the vehicle administered subcutaneously, the rat's rotations recorded for one hour, then test compound was administered s.c. and rotations again recorded for one hour. The number of ipsilateral rotations induced by vehicle was then compared to the number of ipsilateral rotations induced by test compound. Statistical analysis of the data was carried out using Student's t-test (paired).

[8] = target: T1, nicotinic acetylcholine receptor (Rattus norvegicus, UniProt P09483+P12390); assay: ^3 H-Nicotine binding/displacement, rat cerebral membranes; conditions: ^3 H-nicotine 1.9 nM, rat cerebral membranes; read-out: IC50, Nicotine
T1 construct: the brains removed and the cerebral cortex dissected on ice; from tissue; host or cells: cerebral cortex synaptic membranes of male Sprague-Dawley rats
Method: ^3 H-Nicotine binding to rat cerebral membranes was performed according to modifications of the method of Flyn and Mash (J. Neurochem. 47:1948 (1986)). ^3 H-Nicotine (80 ci/mmol; New England Nuclear Corporation, Boston, Mass.) was used as the ligand for nicotinic acetylcholine receptor binding assays. All other reagents were purchased from the Sigma Chemical Co. (St. Louis, Mo.).
Male Sprague-Dawley rats (250-400 gm) were sacrificed by decapitation, the brains removed and the cerebral cortex dissected on ice. Synaptic membranes were prepared by homogenizing the cortical tissue in 20 volumes of ice-cold modified Tris buffer (50 mM Tris pH 7.4, 120 mM NaCl, 5 mM KCl, 2 mM EDTA, 1 mM PMSF) with a polytron (20 sec at setting 5-6) followed by centrifugation (15 min at 5,000×g) at 4° C. The resultant pellet was rehomogenized and centrifuged twice. The final pellet was resuspended in ice-cold assay buffer (50 mM Tris pH 7.4, 120 mM NaCl, 5 mM KCl, 2 mM CaCl2, 1 mM MgCl2) at a concentration of membrane equivalent to 1 gm wet weight cortex per 10 ml buffer. After protein determination the final membrane preparation was diluted with buffer to 3 mg protein/mi. This membrane preparation was used in either the fresh state or frozen (-70° C.) then thawed.
The binding assay is performed manually using 96-well plates, or using a Biomek automated work station (Beckman Instrument Co.). ^3 H-Nicotine was diluted in assay buffer to give a final concentration of 1.9 nM. The Biomek automated work station was programmed to automatically transfer 750 μl of assay buffer with ^3 H-nicotine, 230 μl of membrane preparation and 20 μl of solution containing the compound of interest in assay buffer, DMSO, ethanol:DMSO (1:1) or appropriate vehicle to the 96-well plate. Atropine was added to the incubation buffer at a final concentration of 3 μM to block binding to muscarinic acetylcholine receptor sites. The plates were maintained on ice for 60 min and the tissue-bound radioactivity was separated from the free by rapid filtration in a Brandel Harvester onto GF/C filters presoaked in 0.5% polyethyleneimine for at least 2 hr. The filters were washed with 4×2 ml of ice-cold assay buffer and filters were transferred to vials to which 4 ml of scintillation cocktail was added. The radioactivity was measured in a LS-6500 Beckman Liquid Scintillation Counter in an autodpm mode. Data were analyzed bylog-logit transformation or non-linear regression analysis (e.g., employing GraphPad Prism, available from GraphPad Software, San Diego, Calif.) to give IC50 values. Non-specific binding was defined by 10 μM cytisine.

[9] = target: muscarinic acetylcholine receptors; assay: ^3 H-QNB (quinuclidinyl benzilate) binding/displacement, rat cerebral membranes; conditions: ^3 H-QNB 60 pM, rat cerebral membranes
[10] = 1 h, 0-60 min, read-out: Ambulation (cross overs), percent of change from control
[11] = 1 h, 0-60 min, read-out: General Activity (beam breaks), percent of change from control
[12] = 2 h, 60-120 min, read-out: Ambulation (cross overs), percent of change from control
[13] = 2 h, 60-120 min, read-out: General Activity (beam breaks), percent of change from control

T1 sequence (P09483 31-630): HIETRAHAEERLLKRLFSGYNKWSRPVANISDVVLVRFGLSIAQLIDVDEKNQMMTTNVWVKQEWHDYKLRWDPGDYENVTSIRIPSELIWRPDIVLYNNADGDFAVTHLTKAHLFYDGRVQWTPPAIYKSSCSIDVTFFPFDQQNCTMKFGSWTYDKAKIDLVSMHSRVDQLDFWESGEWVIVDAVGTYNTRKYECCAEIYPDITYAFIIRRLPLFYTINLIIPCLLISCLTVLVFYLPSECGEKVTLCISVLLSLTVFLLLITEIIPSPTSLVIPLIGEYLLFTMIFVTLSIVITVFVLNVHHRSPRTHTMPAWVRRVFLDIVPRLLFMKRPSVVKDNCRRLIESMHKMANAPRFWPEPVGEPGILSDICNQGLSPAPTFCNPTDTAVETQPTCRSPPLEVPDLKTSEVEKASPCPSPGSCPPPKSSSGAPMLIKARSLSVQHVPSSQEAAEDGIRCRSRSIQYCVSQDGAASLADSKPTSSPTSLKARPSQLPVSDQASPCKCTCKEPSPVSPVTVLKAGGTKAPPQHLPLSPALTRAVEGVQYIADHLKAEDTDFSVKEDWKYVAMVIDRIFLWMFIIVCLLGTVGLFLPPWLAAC
T1 sequence (P12390 25-500): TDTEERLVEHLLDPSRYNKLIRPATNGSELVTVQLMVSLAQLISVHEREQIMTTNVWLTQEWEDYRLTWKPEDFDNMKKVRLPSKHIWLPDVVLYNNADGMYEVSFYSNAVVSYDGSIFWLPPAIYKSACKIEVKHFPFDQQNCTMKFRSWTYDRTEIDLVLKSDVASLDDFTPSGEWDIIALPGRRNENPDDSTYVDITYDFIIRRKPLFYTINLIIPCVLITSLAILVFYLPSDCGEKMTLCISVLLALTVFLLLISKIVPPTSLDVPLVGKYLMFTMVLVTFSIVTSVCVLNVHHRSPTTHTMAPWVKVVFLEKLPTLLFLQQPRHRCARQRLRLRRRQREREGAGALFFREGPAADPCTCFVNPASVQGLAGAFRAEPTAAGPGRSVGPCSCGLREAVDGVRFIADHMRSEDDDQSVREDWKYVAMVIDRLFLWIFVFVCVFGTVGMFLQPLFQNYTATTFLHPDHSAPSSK

SMILES | percent fractional release, ^3 H-Dopamine, Striatum [1] [%] | percent fractional release, ^3 H-Norepinephrine, Prefrontal Cortex [2] [%] | change in vivo at 20 mg/kg [3, 10] [%] | change in vivo at 20 mg/kg [3, 11] [%] | change in vivo at 20 mg/kg [3, 12] [%] | change in vivo at 20 mg/kg [3, 13] [%] | percent fractional release, ^3 H-Norepinephrine, Thalamus [4] [%] | percent fractional release, ^3 H-Norepinephrine, Hippocampus [5] [%] | percent fractional release, ^3 H-Dopamine, Olfactory Tubercles [6] [%] | Percent change from control (ipsilateral rotations) [7] | change in vivo at 0.5 mg/kg ([3]; 2 h, 60-120 min, 0.5 mg/kg salt, read-out: General Activity (beam breaks), percent of change from control) [%] | IC50 [8] [µM] | IC50 [9] [µM]
CN1CCCC1c1cncc(-c2ccc(F)cc2)c1.O=C(O)/C=C/C(=O)O (stereo not drawn) [A = CH2; R^7 = CH3; R^5 = 4-fluorophenyl, 5-(4-Fluorophenyl)-3-(1-methyl-2-pyrrolidinyl) pyridine fumarate] | 1.96 | 1.23 | 21 | 95 | 14 | 173 | 0.9 | 0.58 | 2.68 |  |  |  | 
CC(N)Cc1ccccc1 (stereo not drawn) [Amphetamine, amphetamine, reference compound] |  |  |  |  |  |  |  |  |  | +487% | 456 |  | 
CN1CCCC1c1cncc(-c2ccc(O)c(F)c2)c1.O=C(O)/C=C/C(=O)O (stereo not drawn) [R^5 = 3-fluoro-4-hydroxyphenyl, 5-(4-hydroxy-3-fluorophenyl)-3-(1-methyl-2-pyrrolidinyl)pyridine fumarate] | 3.33 | 1.14 | 49 | 63 | -14 | 26 |  | 1.47 | 7.07 |  |  | 0.029 | 35
CN1CCCC1c1cncc(-c2ccc(-c3ccccc3)cc2)c1 (stereo not drawn) [R^5 = 4-biphenyl, 5-(4-Biphenyl)-3-(1-methyl-2-pyrrolidinyl)pyridine fumarate] | 2.2 | 3.4 | -9 | -17 | 73 | 98 | 1.1 | 2.9 | 6.3 |  |  | 0.047 | 9.5
CN1CCCC1c1cncc(-c2ccc(O)cc2)c1.O=C(O)/C=C/C(=O)O (stereo not drawn) [R^5 = 4-hydroxyphenyl, 5-(4-Hydroxyphenyl)-3-(1-methyl-2-pyrrolidinyl)pyridine fumarate] | 3.73 | 3.16 | 74 | 96 | 110 | 7 | 2.3 | 3.03 | 6.62 |  |  | 0.0054 | 19.1
COc1ccc(-c2cncc(C3CCCN3C)c2)cc1.O=C(O)/C=C/C(=O)O (stereo not drawn) [R^5 = 4-methyoxyphenyl, 5-(4-Methoxyphenyl)-3-(1-methyl-2-pyrrolidinyl)pyridine fumarate] | 2.1 | 1.04 | 58 | 83 | 31 | 22 | 0.52 | 0.99 | 4.0 |  |  | 0.018 | 37.7
